Experimental data: paper PMC9767416, “Discovery of small molecule mechanistic target of rapamycin inhibitors as anti-aging and anti-cancer therapeutics” (Frontiers in Aging Neuroscience, 2022)
Read-outs that look alike come from different tables or passages of the source.

Tests used:
C57BL/6 (B6) male mice [1] = assay: In vivo tolerability study (behaviour, signs of toxicity, body weight)
Protocol: C57BL/6 (B6) male mice, 8–12 weeks old, were obtained from the Institute of Molecular Genetics, Prague, Czech Republic. Experimental protocols were approved by the Institutional Animal Care Committee of the Institute of Molecular Genetics, Prague.
Compounds were dissolved in 20 μL DMSO and completed into 200 μL with corn oil.
(§1) During the experiments, mice behavior and possible apparent signs of toxicity were monitored daily. The body weights were determined on days 0, 4, and 8. On day 8, blood (25 μL) was withdrawn using a capillary pipette containing anticoagulant (heparin) from the retroorbital sinus into EDTA-containing tubes. Basic hematological parameters were measured using the Mindray BC-5300 Vet. Mice were then killed, autopsied, and abdominal organs (spleen, liver, and kidney) were removed for visual examination and imaging by a digital camera. Single-cell suspensions from the spleens were prepared by homogenization through a cell strainer (70 μm; BD Biosciences, San Jose, CA, USA). Erythrocytes were osmotically lysed using ammonium chloride-potassium lysis buffer, and the cell suspensions were washed three times in the RPMI-1640 medium and used for further analysis by flow cytometry for selected cell populations.

C57BL/6 (B6) male mice [2] = assay: Histopathological analysis of spleen, kidney and liver; type: in vivo
Protocol: Spleen, kidney, and liver tissue samples from the control and treated animals were fixed in 4% formaldehyde and embedded into paraffin. The analysis and evaluation were performed at the Czech Centre for Phenogenomics, Institute of Molecular Genetics of the CAS, Vestec, using Leica ASP6025 automatic vacuum tissue processor for tissue processing, Leica EG1150 H + C embedding station for embedding, and Leica RM2255 rotary microtome for sectioning (2 μm sections). Standard haematoxylin and eosin (HE) descriptive histopathological staining was done using Leica ST5020 + CV5030 stainer and coverslipped.

[3] = test system: pro-inflammatory cytokines of SASP; assay: Secretion of pro-inflammatory cytokines (SASP) by senescent cells; type: cell-based, human; settings: 50 μM, 24 h; for all detectable cytokines (IL-1α, IL-1β, IL-6, IL-8, IL-27, MCP-1, TNFα): TMZ-induced U87 senescent cells
Protocol: To determine the secretion of selected inflammatory cytokines into culture media, cell cultures were exposed to tested compounds (50 μM) for 24 h. Then the culture medium was removed, cells were washed three times with 1 mL PBS, and a fresh medium without FBS was added for 24 h. Detection of cytokines in conditioned culture media was done by Human Inflammation 11-Plex Panel: IFNγ, IL-1α, IL-1β, IL-6, IL-8, IL-10, IL-12p70, IL-27, IP-10, MCP-1, and TNFα (AimPlex Biosciences, Inc.) using a BD FACSVerseTM flow cytometer (BD Biosciences, Franklin Lakes, NJ, USA) according to manufacturer’s protocol. Data were analyzed using FlowJo 10 software (FlowJo LLC, Ashland, OR, USA).
Importantly, compound 3 decreased IL-1α, IL-8, and MCP-1 consistently in all tested senescence models. The effect of compound 3 on IL-6 was variable.

C57BL/6 (B6) male mice [4] = assay: Spleen cell populations by flow cytometry in the tolerability study; type: in vivo; settings: for CD4+ spleen cells / CD8+ spleen cells / Cd11b+/Gr-1+ spleen cells: percentage from the CD45+ cells
Protocol: as §1
The cellularity of selected spleen cell populations was analyzed by flow cytometry. Cell suspensions were washed and preincubated with anti-CD16/CD32 (2.4G2) antibody to minimize non-specific binding at 4°C for 15 min following the washing step and incubation with labeled primary antibody at 4°C for 30 min. Relevant isotype controls of irrelevant specificity were used. FACS buffer (PBS, 1% FBS, 0.1% NaN3) was used for all washing steps and analysis. The following antibodies were used for FACS analyses: BV421 anti-mouse CD45 (30-F11), PE anti-mouse CD8α (53-6.7), BV711 anti-mouse CD4 (RM4-5), APC anti-mouse Ly-6g/Ly-6C (Gr-1) (RB6-8C5), BV711 anti-mouse CD11b (M1/70). FACS analysis was performed using a flow cytometer Symphony (BD Biosciences) and analyzed using FlowJo 10 software (FlowJo LLC, Ashland, OR, USA).

[5] = test system: mTORC1 substrate p70 S6 kinase (Thr389 phosphorylation); assay: Immunoblot of phospho-p70 S6K (Thr389), mTORC1 activity in cells; type: cell-based, human; settings: for effect on Thr389 S6K phosphorylation / effect on p70 S6K phosphorylation: 100 μM
[6] = Solubility by nephelometry (water, buffer pH 7.4); type: physicochemical; settings: for logSpH 7.4: buffer pH 7.4; for logSH2O: water
Protocol: Compounds’ solubility was measured by the NEPHELOstar microplate instrument (BMG Labtech, Offenburg, Germany). Stock solutions were prepared by dissolving the tested compounds in ultrapure water or sodium phosphate buffer (pH 7.4) to obtain a concentration of 160 and 1,000 μg/mL. Each stock solution was sonicated at full power by Hielscher UP100H needle ultrasonic processor (Teltow, Germany) before loading into NEPHELOstar instrument injector A. Ultrapure water or sodium phosphate buffer was loaded into injector B. Compound was diluted in 48 wells in 0–160 or 0–1,000 μg/mL range and subsequently shook for 30 s. Each well was scanned with 80% laser power in matrix 3 × 3, beam width 2 mm, and obtained data were evaluated in GraphPad Prism 7.03 (GraphPad Software, San Diego, CA, USA) using segmental linear regression.

[7] = p.o. 5, 25 and 50 mg/kg body weight, days 0, 3, 5
[8] = mice, all three doses (5, 25, 50 mg/kg p.o.)
[9] = all tested senescence models (DIS-BJ, IR-RPE-1, TMZ-U87)
[10] = 5 mg/kg p.o. days 0, 3, 5, spleen day 8
[11] = 25 mg/kg p.o. days 0, 3, 5, spleen day 8
[12] = 50 mg/kg p.o. days 0, 3, 5, spleen day 8
[13] = sodium phosphate buffer pH 7.4, nephelometry

For Nc1ccc(C(=O)Nc2cccc(-c3c[nH]c4ncccc34)c2)cc1O [Compound 3, N-(3-(1H-pyrrolo[2,3-b]pyridin-3-yl)phenyl)-4-amino-3-hydroxybenzamide], the symptoms of intoxication (C57BL/6 (B6) male mice [1]; 50 mg/kg body weight, perorally) was “did not exert any symptoms of intoxication”, the “changes in mice behavior and body weights” value (C57BL/6 (B6) male mice [1]; [7]) was “no changes” and the “signs of whole body or organ toxicities” value (C57BL/6 (B6) male mice [1]; [7]) was “no apparent signs”. For the same compound, the “histopathology, spleen” value (C57BL/6 (B6) male mice [2]; mice, 25 mg/kg p.o., HE, 100×) was “mild extramedullar hematopoiesis”, the “histopathology, kidneys” value (C57BL/6 (B6) male mice [2]; mice, 25 mg/kg p.o., HE, 200×) was “narrowing of Bowman’s space (arrow), focal tubular atrophy” and the “histopathology, kidneys” value (C57BL/6 (B6) male mice [2]; mice, 50 mg/kg p.o., HE, 200×) was “multifocal mild tubular damage”. For the same compound, the “histopathology, liver” value (C57BL/6 (B6) male mice [2]; mice, 50 mg/kg p.o., HE, 400×) was “rare incipient centrilobular necrosis”, the “histopathology, liver” value (C57BL/6 (B6) male mice [2]; mice, 5, 25, 50 mg/kg p.o., dose-dependent) was “minimal evidence of damage” and the “histopathology, kidneys” value (C57BL/6 (B6) male mice [2]; mice, 5, 25, 50 mg/kg p.o., proportional to dose) was “most pronounced pathological changes”. For the same compound, the “histopathology, spleen” value (C57BL/6 (B6) male mice [2]; [8]) was “varying degrees of extramedullary haematopoiesis”, the “IL-6 level in conditioned medium” value ([3]; DIS-BJ senescent cells) was “apparent decrease” and the “IL-6 level in conditioned medium” value ([3]; TMZ-U87 senescent cells) was “apparent decrease”. The “all detectable cytokines (IL-1α, IL-1β, IL-6, IL-8, IL-27, MCP-1, TNFα)” value [3] was “suppressed”, the “IL-1α level in conditioned medium” value [3, 9] was “decreased” and the “IL-8 level in conditioned medium” value [3, 9] was “decreased”. For the same compound, the “MCP-1 level in conditioned medium” value [3, 9] was “decreased”, the “CD45+ spleen cells” value (C57BL/6 (B6) male mice [4]; [10]) was 94.3% and the “CD4+ spleen cells” value (C57BL/6 (B6) male mice [4]; 5 mg/kg p.o.) was 19.0%. For the same compound, the “CD8+ spleen cells” value (C57BL/6 (B6) male mice [4]; 5 mg/kg p.o.) was 11.4%, the “Cd11b+/Gr-1+ spleen cells” value (C57BL/6 (B6) male mice [4]; 5 mg/kg p.o.) was 0.7% and the “CD45+ spleen cells” value (C57BL/6 (B6) male mice [4]; [11]) was 95.9%. For the same compound, the “CD4+ spleen cells” value (C57BL/6 (B6) male mice [4]; 25 mg/kg p.o.) was 15.9%, the “CD8+ spleen cells” value (C57BL/6 (B6) male mice [4]; 25 mg/kg p.o.) was 9.6% and the “Cd11b+/Gr-1+ spleen cells” value (C57BL/6 (B6) male mice [4]; 25 mg/kg p.o.) was 1.0%. The “CD45+ spleen cells” value (C57BL/6 (B6) male mice [4]; [12]) was 97.2%, the “CD4+ spleen cells” value (C57BL/6 (B6) male mice [4]; 50 mg/kg p.o.) was 16.0% and the “CD8+ spleen cells” value (C57BL/6 (B6) male mice [4]; 50 mg/kg p.o.) was 9.8%. For the same compound, the “Cd11b+/Gr-1+ spleen cells” value (C57BL/6 (B6) male mice [4]; 50 mg/kg p.o.) was 0.8%, the “effect on Thr389 S6K phosphorylation” value ([5]; BJ cells, 1 and 5 h) was “inhibitory effect” and the “effect on Thr389 S6K phosphorylation” value ([5]; DU-145, 1 and 5 h) was “no effect”. The “effect on Thr389 S6K phosphorylation” value ([5]; H1299, 1 and 5 h) was “Marked but transient inhibition”, the “effect on Thr389 S6K phosphorylation” value ([5]; MDA-MB-231, 1 and 5 h) was “Marked but transient inhibition” and the “effect on Thr389 S6K phosphorylation” value ([5]; RPE-1, 1 and 5 h) was “no effect”. For the same compound, the “effect on Thr389 S6K phosphorylation” value ([5]; T98, 1 and 5 h) was “Marked but transient inhibition”, the “effect on Thr389 S6K phosphorylation” value ([5]; U87, after 1 h, reasonable level also after 5 h) was “most potent inhibitory effect” and the “effect on p70 S6K phosphorylation” value ([5]; docetaxel-induced senescent BJ, 1 and 5 h) was “robust effect”. The “effect on p70 S6K phosphorylation” value ([5]; ionizing radiation-induced senescent RPE-1, 1 and 5 h) was “less pronounced effect”, the “concentration from which inhibition of S6K phosphorylation is apparent” value ([5]; proliferating BJ cells, 0–100 μM, after 5 h-long exposure) was 6.25 µM and the “effect on p70 S6K phosphorylation” value ([5]; temozolomide-induced senescent U87, 1 and 5 h) was “less pronounced effect”. For the same compound, the solubility kinetic at 30 s ([6]; aqueous buffer, sodium phosphate buffer pH 7.4, nephelometry, read-out: Sol. (buffer 7.4)) was under 6 µg/mL, the “logSpH 7.4” value [6] was under −4.76 and the “Sol. (buffer 7.4)” value [6, 13] was “lower than 6 μg/mL”. For the same compound, the “Sol. (H2O)” value ([6]; ultrapure water, nephelometry) was “lower than 6 μg/mL”, the solubility kinetic at 30 s ([6]; ultrapure water, nephelometry, read-out: Sol. (H2O)) was under 6 µg/mL and the logSH2O [6] was under −4.76.

For CC(C)n1nc(-c2cc3cc(O)ccc3[nH]2)c2c(N)ncnc21 [Torkinib, torkinib], the “signs of whole body or organ toxicities” value (C57BL/6 (B6) male mice [1]; [7]) was “no apparent signs”, the “histopathology, spleen” value (C57BL/6 (B6) male mice [2]; [8]) was “minimal to moderate signs of extramedullary haematopoiesis” and the “all detectable cytokines (IL-1α, IL-1β, IL-6, IL-8, IL-27, MCP-1, TNFα)” value [3] was “suppressed”. The “CD45+ spleen cells” value (C57BL/6 (B6) male mice [4]; [10]) was 92.0%, the “CD4+ spleen cells” value (C57BL/6 (B6) male mice [4]; 5 mg/kg p.o.) was 15.5% and the “CD8+ spleen cells” value (C57BL/6 (B6) male mice [4]; 5 mg/kg p.o.) was 10.4%. The “Cd11b+/Gr-1+ spleen cells” value (C57BL/6 (B6) male mice [4]; 5 mg/kg p.o.) was 0.9%, the “CD45+ spleen cells” value (C57BL/6 (B6) male mice [4]; [11]) was 96.7% and the “CD4+ spleen cells” value (C57BL/6 (B6) male mice [4]; 25 mg/kg p.o.) was 15.4%. The “CD8+ spleen cells” value (C57BL/6 (B6) male mice [4]; 25 mg/kg p.o.) was 9.8%, the “Cd11b+/Gr-1+ spleen cells” value (C57BL/6 (B6) male mice [4]; 25 mg/kg p.o.) was 0.6% and the “CD45+ spleen cells” value (C57BL/6 (B6) male mice [4]; [12]) was 84.0%. For the same compound, the “CD4+ spleen cells” value (C57BL/6 (B6) male mice [4]; 50 mg/kg p.o.) was 16.6%, the “CD8+ spleen cells” value (C57BL/6 (B6) male mice [4]; 50 mg/kg p.o.) was 10.2% and the “Cd11b+/Gr-1+ spleen cells” value (C57BL/6 (B6) male mice [4]; 50 mg/kg p.o.) was 1.3%. The “effect on Thr389 S6K phosphorylation” value ([5]; BJ cells, 1 and 5 h) was “inhibitory effect”, the “logSpH 7.4” value [6] was under −4.71 and the “logSpH 7.4” value ([6]; listed as torkinib) was under −4.60. The “Sol. (buffer 7.4)” value [6, 13] was under 6 µg/mL, the “Sol. (buffer 7.4)” value ([6]; sodium phosphate buffer pH 7.4, nephelometry, listed as torkinib) was “lower than 6 μg/mL” and the “Sol. (H2O)” value ([6]; ultrapure water, nephelometry) was under 6 µg/mL. For the same compound, the “Sol. (H2O)” value ([6]; ultrapure water, nephelometry, listed as torkinib) was “lower than 6 μg/mL”, the logSH2O [6] was under −4.71 and the logSH2O ([6]; listed as torkinib) was under −4.60.
